Experimental data: US12042479B2, “Use of topical formulations of cannabinoids in the treatment of epidermolysis bullosa and related connective tissue disorders” (priority 2016, dated 2024)
Entries after “also recorded” stand apart in the source; their conditions may differ. Where two headings read alike, the source gives them in different places.

What was measured:
[1] = test system: CB1 receptor; assay: CB1 receptor expression by human fibroblasts under TGFβ1 (western blot); format: cell-based; details: CB1 receptor/HSP90 ratio, FIG. 22
[2] = test system: αSMA; assay: TGFβ1-induced αSMA expression in human fibroblasts (immunoblot); format: cell-based; details: αSMA/HSP90 ratio, FIG. 23
Protocol: Experimental Design: HaCaT and HFL-1 cells cultured in 24-well plates (1×10^5 cells/well/mL) in DMEM supplemented with 1% FBS and antibiotics/antimycotics in the presence of INM-501, INM-509, INM-505, INM-506, INM-513 (cannabigerol (CBG)), INM-517, HU-210 ((6aR,10aR)-9-(hydroxymethyl)-6,6-dimethyl-3-(2-methyloctan-2-yl)-6H,6aH,7H,10H,10aH-benzo[c]isochromen-1-ol)), and SR144528 (all at 1 μM concentration, EchoPharmaceuticals, AT Nijmegen, The Netherlands, Cayman Chemical, Ann Arbor, MI) alone or with simultaneously added human recombinant TGFβ1 at 10 and 20 ng/ml concentrations for 72 hr. Cell culture supernatants were removed and cells were lyzed with Cell Protein Extraction Buffer supplemented with Proteinases/Phosphatases Inhibitors Cocktail. […]
(§1) Assay Procedures: EMT induced by TGFβ1 in keratinocytes was analyzed by expression of human E-Cadherin (E-CDH) and Cellular Fibronectin (FBN-EDA). Fibroblast activation and differentiation was determined by αSMA expression. E-CDH, FBN-EDA and αSMA proteins were determined by SDS-PAGE and Immunobloting using mouse anti-human E-CDH, FBN-EDA and αSMA monoclonal antibodies. […] Density of the bands was quantified in two infrared channels independently using Odyssey software 2.1 (LI-COR Biosciences). The results are expressed as a protein/β-tubulin/HSP90 density ratio.

[3] = test system: CCL2/MCP-1; format: cell-based, human
[4] = test system: keratins K5, K6, K14, K15, K16, K17; assay: Keratin expression in HaCaT keratinocytes by Western blot; format: cell-based, human; details: for expression of K15: Western blot, cells pretreated with IFNγ/TNFα, FIG. 6 right; for K5 protein expression / K14 protein expression / K15 protein expression / K16 protein expression / K17 protein expression: post-differentiating human keratinocyte cells, concentration dependent effect, FIG. 20
Protocol: Cell culturing was performed as follows: HaCaT, human immortalized keratinocyte cell line was cultured in Dulbecco's Modified Eagle Medium (DMEM; Life Technologies Hungary Ltd.) supplemented with 10 (V/V) % fetal bovine serum (FBS; Life Technologies Hungary Ltd.) and antibiotics mixture (penicillin and streptomycin in 1:100; PAA Laboratories GmbH, Pasching, Austria) and Fungizone® Antimicotic (in 1:200; Life Technologies Hungary Ltd.) respectively.
Cells were cultured at 37° C. in humidified, 5% CO2-containing atmosphere, the medium was changed every other day, and cells were sub-cultured at 70-80% confluence in all cases. For the drug treatment, the medium was changed every day.
Western blotting was used to determine the expression of keratins in HaCaT cells. The initial cell count was 2×10^5 cells/per Petri dish in “small” (d=35 mm) Petri dishes in 1.5 mL culture medium (DMEM supplemented with FBS (10%), antibiotics and antimycotics). Cells were harvested at the following stages: preconfluent (proliferating) and postconfluent (differentiating). The combinations employed for Western blotting were cannabidiols:cannabinol (1:0.1 μM), cannabidiols:cannabinol (0.1:1 μM), and cannabidiols:cannabinol (1:1 μM). The genes whose expression was investigated by Western blotting were GAPDH or β-actin as internal controls and (K1), K5, K6, (K10), K14, K15, K16, and K17. Protein samples were used at 5 μl/well. The standards used were PageRuler Plus Prestained (Pierce). Electrophoresis was at 100 volts.
Transfer was performed using the Trans-Blot® Turbo™ Transfer System (1.3 A, 25 V, 7 min). The primary antibody was used at 1:100 in 5% milk containing PBS; overnight at 4° C.; the primary antibody was guinea pig anti-human keratins: anti human Keratin 1, Keratin 5, Keratin 6, Keratin 14, Keratin 15, Keratin 16, Keratin 17 (from Lutz Langbein; predicted band: […]). The secondary antibody was used at 1:1000 in 5% milk containing PBS; 1 hr at RT; the secondary antibody was HRP-conjugated goat anti-Guinea Pig IgG (Santa Cruz). The loading controls were Rabbit anti-human GAPDH (Novus Biologicals; Cat. No.: NB300-322; predicted band: ˜37 kDa) or anti-human β-actin (Sigma-Aldrich; Cat. No.: A2668; predicted band: ˜42 kDa) 1:1000 in 5% milk containing PBS. HRP-conjugated goat anti-rabbit IgG Fc-segment (BioRad 170-6515; 1:1000) was used.
For statistical analysis, data were analyzed and graphs were plotted by using Origin Pro Plus 6.0 software (Microcal, Northampton, MA, USA), using Student's two-tailed two samples t-test and P<0.05 values were regarded as significant differences.

[5] = test system: IL-6; assay: IFNγ/TNFα-induced IL-6 production by human keratinocytes; format: cell-based; details: FIG. 13
[6] = test system: IL-8; assay: IL-8 production by human keratinocytes; format: cell-based; details: basal, FIG. 13
[7] = Skin penetration, Franz diffusion cell; format: in vitro ADME, porcine; details: after 18 hours at 32° C.; 400 μg applied; LABRASOL/Plo-gel formulation; FIG. 18
Protocol: Skin penetration of formulations described herein was measured according to the following procedure: the formulation was LABRASOL® (caprylocaproyl polyoxyl-8 glycerides), Plo-gel (Poloxomer 407, Lecithin, isopropyl palmitate). The formulation is applied to the center part of the circle and is rubbed to the skin using a […]. The sample is mounted to the top of a Franz diffusion cell with the outer layer of the skin facing upward. The receptor medium of the Franz cell is filled with phosphate buffer. The cap of the cell is mounted and clamped. This construct is placed inside the incubator/shaker for 18 hours at 32° C. (FIG. 14).

[8] = test system: fibronectin-EDA; assay: TGFβ1-induced fibronectin-EDA expression in HaCaT keratinocytes (immunoblot); format: cell-based; details: human keratinocytes; fibronectin-EDA/β-tubulin ratio; FIG. 21, 25
Text: (§2) For western blotting in the wound healing analysis, epithelial-mesenchymal transition (EMT) is a critical element of epithelial biology, cancer development, and fibrosis. Chronic activation of TGF-β-signaling in the skin ultimately leads to fibrosis (keloid). EMT of keratinocytes is adaptive response in the normal wound healing process. It is characterized by decrease of E-cadherin (important element of keratinocyte integrity and tight junction formation) expression and upregulation of cellular fibronectin (Fibronectin-EDA) production. The latter is a very important protective element of epithelial cells during mucosal tissue repairs.
(§3) Total protein extracts were prepared from synchronized HaCaT cells at different times. […]
as §1

[9] = test system: E-cadherin; assay: TGFβ1-induced E-cadherin inhibition in HaCaT keratinocytes (immunoblot); format: cell-based; details: human keratinocytes; E-cadherin/β-tubulin ratio; FIG. 21, 24
Text: as §2, §3, §1

[10] = test system: keratins K5, K6, K14, K15, K16, K17; assay: Keratin expression in HaCaT keratinocytes by Western blot; format: cell-based, human; details: 10 μM

SMILES: Cc1c(C(=O)NN2CCCCC2)nn(-c2ccc(Cl)cc2Cl)c1-c1ccc(I)cc1 [AM251, N-(piperidin-1-yl)-5-(4-iodophenyl)-1-(2,4-dichlorophenyl)-4-methyl-1H-pyrazole-3-carboxamide]
- cell responsiveness to TGFβ1 [1]: modify
- TGFβ1-induced αSMA expression (TGFβ1-responsiveness) [2]: upregulating

SMILES: COc1ccc(C(=O)c2c(C)n(CCN3CCOCC3)c3cc(I)ccc23)cc1 [AM630, 6-iodopravadoline]
- cell responsiveness to TGFβ1 [1]: modify

SMILES: CCCCCCC(C)(C)c1cc(O)c2c(c1)OC(C)(C)[C@@H]1CC=C(CO)C[C@@H]21 [HU-210, (6aR,10aR)-9-(hydroxymethyl)-6,6-dimethyl-3-(2-methyloctan-2-yl)-6H,6aH,7H,10H,10aH-benzo[c]isochromen-1-ol]
- IFNγ/TNFα-induced CCL2/MCP-1 production [3]: upregulated; also recorded: highest effect; also recorded: increase

SMILES: C=C(C)[C@@H]1CCC(C)=C[C@H]1c1c(O)cc(CCCCC)cc1O [INM-505, cannabidiols]
- expression of K15 [4]: promote
- K5 protein expression [4]: generally increases
- K14 protein expression [4]: generally increases
- K15 protein expression [4]: generally increases
- K16 protein expression [4]: generally increases
- K17 protein expression [4]: generally increases
- production of IL-6 by IFNγ/TNFα [5]: attenuate
- IFNγ/TNFα-induced CCL2/MCP-1 production [3]: upregulated; also recorded: increase
- IL-8 production [6]: highly selective inhibitory effect
- location of cannabinoid molecules in skin [7]: located in keratinocytes and basal cells

SMILES: CCCCCc1cc(O)c(C/C=C(\C)CCC=C(C)C)c(O)c1 [INM-513, cannabigerol]
- IFNγ/TNFα-induced CCL2/MCP-1 production [3]: upregulated

SMILES: CCCCCc1cc(O)c2c(c1)OC(C)(C)c1ccc(C)cc1-2 [INM-517, 6,6,9-trimethyl-3-pentylbenzo[c]chromen-1-ol]
- expression of K15 [4]: promote
- K5 protein expression [4]: generally increases
- K14 protein expression [4]: generally increases
- K15 protein expression [4]: generally increases
- K16 protein expression [4]: generally increases
- K17 protein expression [4]: generally increases
- TGF-β-induced fibronectin-EDA expression [8]: preserving
- TGF-β-induced downregulation of E-cadherin [9]: strong and potent effect
- K14 gene expression [10]: downregulated

SMILES: Cc1ccc(Cn2nc(C(=O)N[C@@H]3C(C)(C)[C@@H]4CC[C@@]3(C)C4)cc2-c2ccc(Cl)c(C)c2)cc1 [SR144528, 5-(4-chloro-3-methylphenyl)-1-[(4-methylphenyl)methyl]-N-[(1S,2S,4R)-1,3,3-trimethylbicyclo[2.2.1]heptan-2-yl]-1H-pyrazole-3-carboxamide]
- basal CCL2 production ([3]; HaCaT, 72 hr, method prints 1 mM, b249 prints 1 μM): did not significantly change
- IFNγ/TNFα-induced CCL2/MCP-1 production ([3]; HaCaT, IFNγ and TNFα 10 ng/ml, 72 hr, method prints 1 mM, b249 prints 1 μM): did not significantly change

SMILES: CCCCCc1cc(O)c2c(c1)OC(C)(C)[C@@H]1CCC(C)=C[C@@H]21 [Δ^9-tetrahydrocannabinol]
- IFNγ/TNFα-induced CCL2/MCP-1 production [3]: no significant effects
- basal CCL2 production [3]: no significant effects
